Where a SMILES comes first, the peptide text is derived from it.
Tests used:
mesothelial cells [1] = experiment: Longterm (24 hours) exposure model, PDF diluted 1:1 with medium: viability by LDH release; type: cell-based; settings: PDF diluted 1:1 with M199, L-alanyl-L-glutamine 0.5 and 10.0 g/L, compared to standard PDF
From the text: (§1) The acute recovery experimental setting as described for glutamine as a proof of principle for the cytoprotective PDF, is best representative for the early toxic effects of PDF, mainly due to low pH and lactate as major culprits. Alternate models such as a longterm exposure model to unused PDF diluted 1:1 with normal culture medium are better accepted tools to assess effects of cellular processes that occur in the peritoneum upon more extended exposure to PDF, as occurs in clinical PD. […] Additional control cultures are kept in pure regular culture media at 37° C. for the same time. At the end of the study, cell viability and protein expression are assessed in parallel cultures to identify the cytoprotective PDF.

HSP-72 [2] = experiment: Longterm (24 hours) exposure model, PDF diluted 1:1 with medium: HSP-72 expression; type: cell-based; settings: PDF diluted 1:1 with M199, L-alanyl-L-glutamine 0.5 and 10.0 g/L, compared to standard PDF
From the text: as §1

[3] = test system: Immortalized human mesothelial cells (Met5A, ATCC CRL-9444); experiment: In-vitro model of PD: viability by LDH release; type: cell-based; settings: for LDH release: % of negative control, mean+/-S.D.
Experimental: Immortalized human mesothelial cells (Met5A, ATCC CRL-9444) were cultured in M199/MCDB 105 medium (1:1) supplemented with 100 units/ml penicillin, 100 µg/ml streptomycin and 10% FCS. Cultures were kept in 75 cm^2 tissue culture flasks (Falcon, Becton Dickinson, Oxnard, Calif.) at 37° C. in 5% CO2 and passaged by regular trypsinization. Medium was changed every two to three days. Confluence was reached on average after 6 to 7 days.
Confluent cultures were then exposed for 120 minutes to standard glucose-monomer and acidic lactate-based PDF (Fresenius 2, Bad Homburg, Germany), containing 1.5% anhydrous dextrose at pH 5.5, with or without addition of cytoprotective compound (glutamine at 4 to 20 mM) and allowed to recover in regular growth medium for 16 hours. Control cultures were kept in regular culture media at 37° C. and underwent “sham media changes”, i.e.: exposure to PDF was paralleled by exposure to control medium.
Viability of cells was assessed by lactate dehydrogenase (LDH) analyses. Fifty μl aliquots of supernatants were removed after the described experimental setup and kept on 4° C. until analyzed within 48 hours. Measurements were performed in duplicates with Sigma TOX-7 LDH Kit according to the manufacturer instructions. LDH efflux was calculated as percentage of LDH values measured in each negative control experiment. Induction of HSP was assessed in parallel cultures as described below.

HSP-72 [4] = experiment: In-vitro model of PD: HSP-72 expression by Western blotting; type: cell-based, human
Experimental: Immortalized human mesothelial cells […], ATCC CRL-9444) were cultured in M199/MCDB 105 medium (1:1) supplemented with 100 units/ml penicillin, 100 µg/ml streptomycin and 10% FCS. Cultures were kept in 75 cm^2 tissue culture flasks (Falcon, Becton Dickinson, Oxnard, Calif.) at 37° C. in 5% CO2 and passaged by regular trypsinization. Medium was changed every two to three days. Confluence was reached on average after 6 to 7 days. Confluent cultures were then exposed for 120 minutes to standard glucose-monomer and acidic lactate-based PDF (Fresenius 2, Bad Homburg, Germany), containing 1.5% anhydrous dextrose at pH 5.5, with or without addition of cytoprotective compound ([…] to 20 mM) and allowed to recover in regular growth medium for 16 hours. Control cultures were kept in regular culture media at 37° C. and underwent “sham media changes”, i.e.: exposure to PDF was paralleled by exposure to control medium. Western blotting: Protein content of mesothelial cell harvests was determined by Bradford assay (BioRad) and equal amounts of protein samples (5 μg/lane) were separated by standard SDS-PAGE using a Pharmacia Multiphore II unit. Size-fractionated proteins were transferred to PVDF membranes by semi-dry transfer in a Pharmacia Multiphore II Novablot unit. Membranes were blocked in 5% dry milk in TBS-Tween (10 mM Tris, 150 mM NaCl, 0.05% Tween 20, pH 8.0). Membranes were incubated with the HSP-72 antibody (SPA 810, Stressgen, B.C., Canada). Detection was accomplished by incubation with secondary, peroxidase-coupled antibodies (Sigma, USA) and enhanced chemiluminescence (ECL) using ECL Western blotting analysis system and protocols (Renaissance, NEN-Life Science Products, Boston, Mass., USA). Densitometry was performed with image analysis software (Molecular Analyst software, BioRad, USA). Differential expression of HSP-72 was derived from the ratio of specific signals in the linear range of the protein/signal intensity relationship, normalized to an internal standard, and compared between parallel experiments.

mesothelial cells [5] = experiment: In-vivo acute rat model of PD: mesothelial cell detachment; design: species or system Sprague Dawley rats; settings: 4 hr dwell, intraperitoneal PDF with or without L-glutamine, mean+/-S.D.
Experimental: (§2) The studies were carried out on adult male inbred Sprague Dawley rats (average weight 310 g).
After introduction of anaesthesia (ketamine 100 mg/kg and 5 mg/kg xylazine, intramusculary) the animals were placed on a heated small animal operating table. A sterile catheter was inserted into the peritoneal cavity through a small abdominal midline incision and 35 ml of test fluid (PDF with or without addition of L-glutamine at 4-10 mM) were slowly infused in 45-60 secs. The animal was gently moved, a small volume of peritoneal fluid aspirated, the catheter withdrawn and the abdomen sutured. Animals awoke within 20 minutes after the procedure and had free access to food and tap water. At 4 hours after the intraperitoneal injection animals were again anaesthetized, another small volume of peritoneal fluid was aspirated and animals were sacrificed by cardial puncture and exsanguinations. Thereafter, the abdomen was opened by a midline incision and the complete intraperitoneal fluid gently collected. The volumes of the collected fluids were recorded, and total cell count and differential counts at the two time pints (0 and 4 hours) were assessed by hand count after giemsa staining and by machine count by a coulter counter. Total number of detached mesothelial cells was then computed for each rat. […]

peritoneal membrane = experiment: In-vivo acute rat model of PD: barrier function of the peritoneal membrane; design: species or system Sprague Dawley rats; settings: 4 hr dwell
Experimental: as §2
After introduction of anaesthesia (ketamine 100 mg/kg and 5 mg/kg xylazine, intramusculary) the animals were placed on a heated small animal operating table. A sterile catheter was inserted into the peritoneal cavity through a small abdominal midline incision and 35 ml of test fluid (PDF with or without addition of L-glutamine at 4-10 mM) were slowly infused in 45-60 secs. The animal was gently moved, a small volume of peritoneal fluid aspirated, the catheter withdrawn and the abdomen sutured. Animals awoke within 20 minutes after the procedure and had free access to food and tap water. At 4 hours after the intraperitoneal injection animals were again anaesthetized, another small volume of peritoneal fluid was aspirated and animals were sacrificed by cardial puncture and exsanguinations. Thereafter, the abdomen was opened by a midline incision and the complete intraperitoneal fluid gently collected. The volumes of the collected fluids were recorded, and total cell count and differential counts at the two time pints (0 and 4 hours) were assessed by hand count after giemsa staining and by machine count by a coulter counter. Total number of detached mesothelial cells was then computed for each rat.
For testing the barrier function of the peritoneal membrane, creatinine, glucose and total protein were measured in dialysate (D) samples and creatinine in plasma (P) at the end of the protocol. D/P ratios for creatinine and D/D0 ratios for glucose were computed. Peritoneal loss of protein was calculated as final dialysate concentration×final volume.

HSP-72 [6] = experiment: In-vivo acute rat model of PD: HSP-72 expression in harvested mesothelial cells; design: species or system Sprague Dawley rats; settings: 4 hr dwell, L-glutamine supplemented PDF vs standard PDF
Experimental: After introduction of anaesthesia (ketamine 100 mg/kg and 5 mg/kg xylazine, intramusculary) the animals were placed on a heated small animal operating table. A sterile catheter was inserted into the peritoneal cavity through a small abdominal midline incision and 35 ml of test fluid (PDF with or without addition of L-glutamine at 4-10 mM) were slowly infused in 45-60 secs. The animal was gently moved, a small volume of peritoneal fluid aspirated, the catheter withdrawn and the abdomen sutured. Animals awoke within 20 minutes after the procedure and had free access to food and tap water. At 4 hours after the intraperitoneal injection animals were again anaesthetized, another small volume of peritoneal fluid was aspirated and animals were sacrificed by cardial puncture and exsanguinations. Thereafter, the abdomen was opened by a midline incision and the complete intraperitoneal fluid gently collected. The volumes of the collected fluids were recorded, and total cell count and differential counts at the two time pints (0 and 4 hours) were assessed by hand count after giemsa staining and by machine count by a coulter counter. […]
Western blotting: Protein content of mesothelial cell harvests was determined by Bradford assay (BioRad) and equal amounts of protein samples (5 μg/lane) were separated by standard SDS-PAGE using a Pharmacia Multiphore II unit. […]

Structure (SMILES) | Viability assessed by LDH release (mesothelial cells [1]) | HSP-72 expression (HSP-72 [2]) | LDH release ([3]; control conditions (no PDF)) | Viability (LDH release) ([3]; control conditions, L-glutamine up to 20 mM) | LDH release ([3]; during exposure to PDF for 120 min, 16 hours recovery) | HSP-72 expression (HSP-72 [4]; control conditions (no PDF), relative to control, mean+/-S.D.) | HSP-72 expression (HSP-72 [4]; control conditions, L-glutamine 8 and 10 mM) | HSP-72 expression (HSP-72 [4]; during exposure to PDF for 120 min, relative to control, mean+/-S.D.) | Mesothelial cell detachment (mesothelial cells [5]) | D/Do glucose (peritoneal membrane) | D/P creatinine (peritoneal membrane) | Net ultrafiltration (peritoneal membrane) | Protein loss into the dialysate effluate (peritoneal membrane; final dialysate concentration x final volume) | HSP-72 expression in rat mesothelial cells (HSP-72 [6])
C[C@H](N)C(=O)N[C@@H](CCC(N)=O)C(=O)O [L-alanyl-L-glutamine] (H-Ala-Gln-OH) | preserved viability | increased | – | – | – | – | – | – | – | – | – | – | – | –
NC(=O)CC[C@H](N)C(=O)O [L-glutamine] | – | – | 91+/−7% | unchanged viability | 190+/−19% | 234+/−221% | increased | 1895+/−1928% | 38+/−38 cells | 0.469+/−0.04 | 0.375+/−0.11 | 5.4 ± 2.7 mL | 65 ± 4 mg | overexpression of HSP-72

— patent US11534475B2, “Carbohydrate-based peritoneal dialysis fluid comprising glutamine residue” (ZYTOPROTEC GmbH, priority 2007, dated 2022)
